The target in one assay is T1, 5-HT3 receptor (Rattus norvegicus, UniProt P35563).
T1 construct: crude synapse membrane sample was prepared from rat cerebral cortex; from tissue; host or cells: rat cerebral cortex, crude synaptic membranes
T1 sequence (P35563 24-483): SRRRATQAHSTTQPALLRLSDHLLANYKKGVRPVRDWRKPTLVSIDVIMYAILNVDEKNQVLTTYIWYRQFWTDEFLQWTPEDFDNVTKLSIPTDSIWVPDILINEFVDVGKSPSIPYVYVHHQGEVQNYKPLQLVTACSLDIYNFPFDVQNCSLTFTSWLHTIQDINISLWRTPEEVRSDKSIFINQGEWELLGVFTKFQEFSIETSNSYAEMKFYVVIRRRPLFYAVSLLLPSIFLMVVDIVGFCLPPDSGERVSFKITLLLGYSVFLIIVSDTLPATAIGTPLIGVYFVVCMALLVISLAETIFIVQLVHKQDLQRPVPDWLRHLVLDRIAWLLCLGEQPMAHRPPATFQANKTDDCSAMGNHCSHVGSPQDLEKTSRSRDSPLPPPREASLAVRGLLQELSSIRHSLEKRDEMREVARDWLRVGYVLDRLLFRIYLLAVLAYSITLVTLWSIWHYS
Description: 5-HT3 receptor binding test. Particulars: [3H]Granisetron 1.0 nM, crude synapse membrane from rat cerebral cortex, 25°C; for pIC50: cells marked * are IC50, read-out: Affinity for receptor 5-HT3 (∗ shows IC50); for Ki: cells without asterisk, read-out: Affinity for receptor (Ki value, nM) 5-HT3. The method, then: Experimental Example 2 : 5-HT3 receptor binding test
According to the method of Peroutka et al (European Journal of Pharmacology, vol. 148, pp. 297-299), a specific 5-HT3 receptor binding test was run using, as a tracer ligand, endo-1-methyl-N-(9-methyl-9-azabicyclo[3.3.1]non-3-yl)-1H-indazole-3-carboxamide substituted by tritium (hereinafter to be referred to as [3H]Granisetron). Specifically, crude synapse membrane sample was prepared from rat cerebral cortex, suspended in 50 mM HEPES buffer (pH 7.4) and used for testing. The test compound having several different concentrations and [3H]Granisetron (final concentration 1.0 nM) were added to this suspension and allowed to react at 25°C. Thirty minutes later, the reaction mixture was filtered by suction with cell harvester. The filter was washed with 50 mM Tris buffer (pH 7.4), and the radioactivity on the filter was counted using liquid scintillation counter or β-plate. The non-specific binding was determined in the presence of 1 µM Tropisetron. The concentration of the test compound necessary for 50% inhibition (IC50) and Ki value were determined from graph.

Assay [1] deals with isolated guinea pig ascending colon (Cavia porcellus, UniProt O70528). The experiment in a line: contraction of isolated guinea pig ascending colon. The format is cell-based. Particulars: male Hartley guinea pig ascending colon, Tyrode solution 37°C, relative to methacholine (30 µM) contraction; read-out: Contraction of removed colon (EC50). The method, then: Experimental Example 3 : contraction of isolated guinea pig ascending colon
About 3 cm long ascending colon segment was taken from male Hartley guinea pig and suspended in 10 ml of a Tyrode solution ventilated with a mixed gas of oxygen (95%) and CO2 (5%) at 37°C with the load of 2 g. The contraction was isotonically measured via isotonic transducer. After an equilibrium period of about 30 min, the test compound was administered non-cumulatively from lower concentrations, and dose-dependent contraction was measured. The test compound was administered at 15 minutes intervals. Then, contraction by the test compound in the presence of a 5-HT4 receptor antagonist, 4-amino-3-chloro-6-methoxybenzoic acid · 2-diethylaminoethyl ester (0.3 µM, hereinafter to be referred to as SDZ 205-557) was determined, and antagonistic effect on the reaction by SDZ 205-557 was confirmed.
The contraction by the test compound was evaluated based on the ratio of reaction relative to mean contraction induced by methacholine (30 µM) administered before and after each determination of dose-dependent contraction. The contraction was probit-converted using the maximum value of dose-response curve as 100, and expressed by EC50 as determined from linear regression and maximum reaction ratio.

The target in a further assay is T2, 5-HT4 receptor (Cavia porcellus, UniProt O70528).
T2 construct: crude synapse membrane sample was prepared from guinea pig striatum; from tissue; host or cells: guinea pig striatum, crude synaptic membranes
Description: 5-HT4 receptor binding test. On the set-up: species or system guinea pig. Particulars: [3H]GR113808 0.1 nM, crude synapse membrane from guinea pig striatum, 37°C; read-out: Affinity for receptor (Ki value, nM) 5-HT4. The method, then: Experimental Example 1 : 5-HT4 receptor binding test
According to the method of C.J. Grossman et al. (British Journal of Pharmacology, vol. 109, pp. 618-624), a specific 5-HT4 receptor binding test was run using, as a tracer ligand, 1-methyl-1H-indole-3-carboxylic acid · 1-(2-methylsulfonylaminoethyl)-piperidin-4-ylmethyl ester substituted by tritium (hereinafter to be referred to as [3H]GR113808). Specifically, crude synapse membrane sample was prepared from guinea pig striatum, suspended in 50 mM HEPES buffer (pH 7.4) and used for testing. The test compound having several different concentrations and [3H]GR113808 (final concentration 0.1 nM) were added to this suspension and allowed to react at 37°C. Thirty minutes later, the reaction mixture was filtered by suction with cell harvester. The filter was washed with 50 mM HEPES buffer, and the radioactivity on the filter was counted by liquid scintillation counter. The non-specific binding was determined in the presence of 1 µM GR113808. The concentration of the test compound necessary for 50% inhibition (IC50) and Ki value were determined from graph.

The text below walks through data of patent EP0774460A1, “BENZOIC ACID COMPOUND AND USE THEREOF AS MEDICINE” (YOSHITOMI PHARMACEUTICAL INDUSTRIES, LTD., priority 1994, dated 1995).

As a reminder, the pIC50 is −log10 of the IC50, conventionally taken in molar units. Usually pEC50 stands for the negative decadic logarithm of the EC50, by convention in mol/L. A word on the Ki: it is the dissociation constant of the complex between target and ligand, obtained from inhibition or displacement.

pEC50, pIC50: −log10 of the molar value.

T2 sequence (O70528 whole entry): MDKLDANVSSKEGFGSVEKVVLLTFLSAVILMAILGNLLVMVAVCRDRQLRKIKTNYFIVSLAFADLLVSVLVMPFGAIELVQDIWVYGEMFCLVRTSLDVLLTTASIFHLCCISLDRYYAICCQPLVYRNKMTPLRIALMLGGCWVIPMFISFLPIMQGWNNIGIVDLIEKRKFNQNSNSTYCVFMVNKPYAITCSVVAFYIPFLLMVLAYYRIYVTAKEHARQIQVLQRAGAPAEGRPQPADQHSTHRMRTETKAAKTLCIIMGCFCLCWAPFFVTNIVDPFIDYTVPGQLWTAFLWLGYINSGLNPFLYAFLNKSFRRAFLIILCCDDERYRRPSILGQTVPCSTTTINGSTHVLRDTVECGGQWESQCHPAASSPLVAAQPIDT
Chain of isolated guinea pig ascending colon (O70528 whole entry): as above

`COc1cc(N)c(Cl)cc1C(=O)NCC1CCN(CCCCNC(=O)c2cccc3ccccc23)CC1` [Example 24, 4-amino-5-chloro-2-methoxy-N-(1-(4-(1-naphthoylamino)butyl)piperidin-4-ylmethyl)benzamide]: the pIC50 at 5-HT3 receptor was less than 6.00. Besides, the pEC50 in assay [1] was 8.41. Further, the Ki on 5-HT4 receptor was 1.6 nM.
As for `COc1cc(N)c(Cl)cc1C(=O)NC[C@H]1CCN(CCCCCNC(=O)c2cn(C)c3ccccc23)C1` [Example 88, N-(5-((3R)-3-(4-amino-5-chloro-2-methoxybenzoylaminomethyl)pyrrolidin-1-yl)pentyl)-1-methyl-1H-indole-3-carboxamide], the results for the Ki at 5-HT3 receptor and on 5-HT4 receptor were 350 nM and 1.2 nM, respectively. Also, in assay [1], the pEC50 is 8.85.
For the compound `COc1cc(N)c(Cl)cc1C(=O)NCC1CCN(CCCCNC(=O)c2ccc3ccccc3c2)CC1` [Example 25, 4-amino-5-chloro-2-methoxy-N-(1-(4-(2-naphthoylamino)butyl)piperidin-4-ylmethyl) benzamide], the pIC50 at 5-HT3 receptor was less than 6.00. Also, in assay [1], the pEC50 is 8.34. Moreover, on 5-HT4 receptor, the inhibitory constant (Ki) was 1.4 nM.
On the same counts, the results for `COc1cc(N)c(Cl)cc1C(=O)NCC1CCN(CCCCCNC(=O)c2cn(C)c3ccccc23)CC1` [Example 90, N-(5-(4-(4-amino-5-chloro-2-methoxybenzoylaminomethyl)piperidin-1-yl)pentyl)-1-methyl-1H-indole-3-carboxamide] are less than 6.00, 9.05 and 0.43 nM.
On the same counts, the results for `COc1cc(N)c(Cl)cc1C(=O)NCC1CCN(CCCCCNC(=O)c2ccccc2)CC1` [Example 29, 4-amino-N-(1-(5-benzoylaminopentyl)piperidin-4-ylmethyl)-5-chloro-2-methoxybenzamide] are less than 6.00, 8.43 and 1.7 nM.
Take `CCCNC(=O)NCCCCCN1CC[C@H](CNC(=O)c2cc(Cl)c(N)cc2OC)C1` [Example 46, 4-amino-5-chloro-2-methoxy-N-((3R)-1-(5-(3-n-propylureido)pentyl)pyrrolidin-3-ylmethyl)benzamide]: the pIC50 at 5-HT3 receptor was less than 6.00. Further, in assay [1], the pEC50 is 8.16. Besides, the Ki at 5-HT4 receptor was found to be 1.5 nM.
As for `COc1cc(N)c(Cl)cc1C(=O)NC[C@H]1CCN(CCCCNC(=O)c2cn(C)c3ccccc23)C1` [Example 85, N-(4-((3R)-3-(4-amino-5-chloro-2-methoxybenzoylaminomethyl)pyrrolidin-1-yl)butyl)-1-methyl-1H-indole-3-carboxamide], the inhibition constant Ki turned out to be 260 nM at 5-HT3 receptor and 0.44 nM at 5-HT4 receptor. Also, the pEC50 in assay [1] is 8.92.
